The source of these data is US6294555A, “1-[(1-Substituted-4-piperidinyl)methyl]-4-piperidine derivative, process for producing the same, medicinal compositions containing the same and intermediates of these compounds” (Dainippon Pharmaceutical Co., Ltd., priority 1998, dated 2001).

Molecules are shown by their SMILES. pIC50: −log10 of the molar value.

The target in series [1] is T1, Serotonin 4 (5-HT4) Receptors (Cavia porcellus, UniProt O70528).
T1 construct: the striatum was dissected; from tissue; host or cells: guinea pig (Std-Hartley) brain striatum, membrane fractions
Nature of the series: Binding Assay on Serotonin 4 (5-HT4) Receptors ([3H]-GR113808, striatum membrane fractions). Details: species or system guinea pig (Std-Hartley). As to conditions: 50% inhibition of specific binding of 0.1 nM [3H]-GR113808; 37° C., 30 min; test compounds are fumarates except numbers marked ** (62, 72, 74: free bases). The protocol: Std-Hartley guinea pigs weighing 300-400 g were decapitated, and the brain thereof was immediately taken out, and the striatum was dissected. To the tissue thus obtained was added 15-times volume of Hepes buffer (50 mM, pH7.4, 4° C.), homogenized in a Teflon homogenizer, and centrifuged at 48,000×g at 4° C. for 15 minutes. The pellet was suspended in the same Hepes buffer in a volume of 1 ml per 30 mg of the wet tissues to give receptor membrane fractions.
The reaction was terminated by rapid vacuum filtration and washing (3×4 ml) with ice-cold 50 mM Tris-HCl buffer (pH 7.7) through Whatman GF/B filter paper using a Brandel cell harvester. Prior to the filtration, the filter to be used was presoaked in a 0.1% solution of polyethylenimine for one hour. The radioactivity on the filter was determined with by ACS-II scintillation cocktail by a liquid scintillation counter.

The nature of series [2]: Acute Toxicity (intravenous, lethality over 7 days). As to conditions: mouse, in vivo, mice, observed for 7 days, read-out: 50% lethal dose (LD50). The protocol:
Male mice of Std-ddY strain weighing 25-30 g were used in a group of 5 animals. A test compound was suspended in physiological saline solution or 1% lactose solution and administered intravenously to the mice. […] The LD50 doses of the compounds of Examples 1, 10, 12, 18, 20, 21, 25 and 26 were all more than 100 mg/kg.

Series [3] deals with Mice of Std-ddY strain (evacuation). Nature of the series: Assay on Evacuation in Mice (fecal pellets, oral). Format: in vivo, mouse (Std-ddY, male). Details: key: -: Inactive; +: Moderately stimulated (P<0.05); ++: Markedly stimulated (p<0.01). As to conditions: 1 mg/kg oral; fecal pellets at 30, 60 and 120 minutes; Dunnett's test; fumarates except numbers marked ** (25, 86: free bases). The protocol: Male mice of Std-ddY strain weighing 25-30 g were used. Free access to food and water was allowed up to the beginning of the procedure.
The mice (each group: five mice) were placed in a mesh bottom cage for fasting, and they were allowed for acclimation to new environment for about one hour prior to the start of the experiment. A test compound, which was previously suspended in the 0.5% tragacanth solution, was administered orally to the mice at a dose of 1 mg/kg. The fecal pellets were counted and collected at 30, 60 and 120 minutes after the treatment of a test compound, and weighed.
The statistical judgment of efficacy was carried out between the control group and the treated group, and determined by Dunnett's test.

A further series relates to 5-HT4 receptors. Conditions: background art, J. Pharmacol. Exp. Ther., 1990, 252, 1378; 1991, 257, 781; cited from earlier work.
The next series concerns dopamine D2 receptors. As to conditions: background art; cited from earlier work.
For series [4] the following is noted: background art; cited from earlier work.

T1 sequence (O70528 whole entry): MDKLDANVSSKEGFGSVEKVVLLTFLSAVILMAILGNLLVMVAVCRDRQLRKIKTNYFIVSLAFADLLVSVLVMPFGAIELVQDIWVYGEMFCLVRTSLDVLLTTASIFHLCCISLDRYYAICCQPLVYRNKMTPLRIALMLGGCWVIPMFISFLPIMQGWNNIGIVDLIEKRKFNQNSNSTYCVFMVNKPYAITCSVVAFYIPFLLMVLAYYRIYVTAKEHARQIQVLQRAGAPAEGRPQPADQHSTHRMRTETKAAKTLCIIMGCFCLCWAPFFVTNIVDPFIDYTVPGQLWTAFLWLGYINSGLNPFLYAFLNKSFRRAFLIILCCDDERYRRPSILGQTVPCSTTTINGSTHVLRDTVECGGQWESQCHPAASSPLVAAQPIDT

The term pIC50 denotes the negative decadic logarithm of the IC50, by convention in mol/L. A word on the LD50: it is the dose expected to kill half of the subjects tested. For `COc1cc(N)c(Cl)cc1C(=O)NC1CCN(CC2CCN(C(=O)N3CCCC3)CC2)CC1` [Example 12, 4-amino-5-chloro-2-methoxy-N-[1-[1-(1-pyrrolidinecarbonyl)-4-piperidinylmethyl]-4-piperidinyl]benzamide], the pIC50 in series [1] is 8.06. Also, the LD50 at 168 h in series [2] is greater than 100 mg/kg. Besides, in series [3], the “Effect (evacuation)” value is reported as “++”.
For `COc1cc(N)c(Cl)cc1C(=O)NC1CCN(CC2CCN(C(=S)N(C)C)CC2)CC1` [Example 10, 4-amino-5-chloro-N-[1-(1-dimethylthiocarbamoyl-4-piperidinylmethyl)-4-piperidinyl]-2-methoxybenzamide], in that order: 8.10, greater than 100 mg/kg and “++”.
Regarding `CCN(CC)CCNC(=O)c1cc(Cl)c(N)cc1OC` [metoclopramide], the gastrointestinal motility entry with 5-HT4 receptors is “enhance the gastrointestinal motility by stimulating 5-HT4 receptors”.
As to `Nc1c(Cl)cc(C(=O)NC2CCN(CC3CCN(C(=O)N4CCCC4)CC3)CC2)c2c1CCO2` [Example 21, 4-amino-5-chloro-N-[1-[1-(1-pyrrolidinecarbonyl)-4-piperidinylmethyl)-4-piperidinyl]-2,3-dihydrobenzo[b]furan-7-carboxamide], the negative logarithm of the IC50 (pIC50) in series [1] is 8.62. Besides, in series [2], the LD50 at 168 h is greater than 100 mg/kg. Also, the “Effect (evacuation)” value in series [3] is “++”.
`CN(C)C(=O)N1CCC(CN2CCC(NC(=O)c3cc(Cl)c(N)c4c3OCC4)CC2)CC1` [Example 18, 4-amino-5-chloro-N-[1-(1-dimethylcarbamoyl-4-piperidinylmethyl)-4-piperidinyl]-2,3-dihydrobenzo[b]furan-7-carboxamide] showed a pIC50 in series [1] of 8.48. Also, the LD50 at 168 h in series [2] was greater than 100 mg/kg. The “Effect (evacuation)” value in series [3] is listed as “++”.
On to `COc1cc(N)c(Cl)cc1C(=O)N[C@H]1CCN(CCCOc2ccc(F)cc2)C[C@H]1OC` (relative stereo) [Comp. A, cis-4-amino-5-chloro-N-[1-[3-(4-fluorophenoxy)-propyl]-3-methoxy-4-piperidinyl]-2-methoxybenzamide], for which the “inhibitory effects on the central nervous system / dopamine D2 antagonism” value in the series on dopamine D2 receptors is listed as “inhibitory effects on the central nervous system based on the antagonistic activity against dopamine D2 receptors”. Besides, in series [4], the “side effects on the heart” value is on record as “side effects on the heart”. In the series on 5-HT4 receptors, the gastrointestinal motility result is “enhance the gastrointestinal motility by stimulating 5-HT4 receptors”.
For the compound `CCOc1cc(N)c(Cl)cc1C(=O)NC1CCN(CC2CCN(C(=O)N(C)C)CC2)CC1` [Example 25, 4-amino-5-chloro-N-[1-(1-dimethylcarbamoyl-4-piperidinylmethyl)-4-piperidinyl]-2-ethoxybenzamide], the pIC50 in series [1] is 8.38. In addition, the LD50 at 168 h in series [2] was greater than 100 mg/kg. Further, in series [3], the “Effect (evacuation)” value is “++”.
With `COc1cc(N)c(Br)cc1C(=O)NC1CCN(CC2CCN(C(=O)N(C)C)CC2)CC1` [Example 26, 4-amino-5-bromo-N-[1-(1-dimethylcarbamoyl-4-piperidinylmethyl)-4-piperidinyl]-2-methoxybenzamide], in series [1], the pIC50 is 7.94. Moreover, the LD50 at 168 h in series [2] was greater than 100 mg/kg. Also, the “Effect (evacuation)” value in series [3] is reported as “+”.
In series [1], `CCOc1cc(N)c(Cl)cc1C(=O)NC1CCN(CC2CCN(C(=O)N3CCCC3)CC2)CC1` [Example 32] showed a pIC50 of 8.49. Also, the “Effect (evacuation)” value in series [3] was “+”.
With `COc1cc(N)c(Cl)cc1C(=O)NC1CCN(CC2CCN(C(=O)N(C)C)CC2)CC1` [Example 1, 4-amino-5-chloro-N-[1-(1-dimethylcarbamoyl-4-piperidinylmethyl)-4-piperidinyl]-2-methoxybenzamide], in series [1], the pIC50 is 7.92. In series [2], the LD50 at 168 h is greater than 100 mg/kg. Further, the “Effect (evacuation)” value in series [3] is “++”.
The compound `Nc1c(Cl)cc(C(=O)NC2CCN(CC3CCN(C(=O)Nc4ccccc4)CC3)CC2)c2c1CCO2` [Example 52, 4-amino-5-chloro-N-[1-(1-phenylcarbamoyl-4-piperidinylmethyl)-4-piperidinyl]-2,3-dihydrobenzo[b]furan-7-carboxamide] had a pIC50 in series [1] of 9.44. The “Effect (evacuation)” value in series [3] is “++”.
Turning to `CCOc1cc(N)c(Cl)cc1C(=O)NC1CCN(CC2CCN(C(=O)CCOC)CC2)CC1` [Example 81, 4-amino-5-chloro-2-ethoxy-N-[1-[1-(3-methoxypropionyl)-4-piperidinylmethyl]-4-piperidinyl]benzamide], the pIC50 in series [1] is 8.11. Also, the “Effect (evacuation)” value in series [3] is given as “++”.
Consider `CN(C)C(=S)N1CCC(CN2CCC(NC(=O)c3cc(Cl)c(N)c4c3OCC4)CC2)CC1` [Example 20, 4-amino-5-chloro-N-[1-(1-dimethylthiocarbamoyl-4-piperidinylmethyl)-4-piperidinyl]-2,3-dihydrobenzo[b]furan-7-carboxamide], for which the pIC50 in series [1] was 8.89. Further, the LD50 at 168 h in series [2] was greater than 100 mg/kg. In addition, the “Effect (evacuation)” value in series [3] was “++”.
Consider `CCN(CC)C(=O)N1CCC(CN2CCC(NC(=O)c3cc(Cl)c(N)c4c3OCC4)CC2)CC1` [Example 19, 4-amino-5-chloro-N-[1-(1-diethylcarbamoyl-4-piperidinylmethyl)-4-piperidinyl]-2,3-dihydrobenzo[b]furan-7-carboxamide], for which the pIC50 in series [1] is 8.57. Further, the “Effect (evacuation)” value in series [3] was “++”.
